Data published in ChEMBL document CHEMBL1201862, “PubChem BioAssay data set” (2004).
The source made the active and inactive calls.

Experiments:
[1] = Luminescence Cell-Based Dose Response HTS to Identify Activators of Luciferase Translation or Activity in H4 […] Cells. [Related pubchem assays: 1829 (Project Summary), 1814 (Primary HTS)]; assay type: functional
H4 = experiment: Luminescence Cell-Based Dose Response HTS to Identify Activators of 5'UTR Stem-Loop Driven Prion Protein mRNA Translation in H4 Neuroglioblastoma Cells. [Related pubchem assays: 1829 (Project Summary), 1814 (Primary HTS)]; assay type: functional; conditions: Homo sapiens
[2] = Luminescence Cell-Based Dose Confirmation HTS to Identify Activators of 5'UTR Stem-Loop Driven Alpha-Synuclein mRNA Translation in H4 Neuroglioblastoma Cells. [Related pubchem assays: 1829 (Project Summary), 1814 (Primary HTS)]; assay type: functional
[3] = viability of PTEN-deleted HCT116 cells – cell-based, HCT116 PTEN knockout, dose response (AID 1047); assay type: functional;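 note: HCT116 colon tumor cells with PTEN knocked out; cells exposed to compound for 60 hours before readout; potency for loss of cell viability measured by luminescence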
[4] = viability of HCT116 lacking mutant beta-catenin – cell-based, human colon tumor, dose response (AID 1045); assay type: functional;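 note: HCT116 colon tumor cells with beta catenin knocked out; cells exposed to compound for 60 hours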
Cytochrome P450 2D6 = Cytochrome P450 2D6 (Homo sapiens, UniProt P10635);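 note: CYP2D6 member of a cytochrome P450 panel assay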
[5] = target: T1, Replicative DNA helicase DnaB (Mycobacterium tuberculosis, UniProt P9WMR3); experiment: DnaB intein splicing inhibitors, dose response, biochemical, cell-free fluorescence (AID 449749); assay type: functional
T1 sequence (P9WMR3 whole entry): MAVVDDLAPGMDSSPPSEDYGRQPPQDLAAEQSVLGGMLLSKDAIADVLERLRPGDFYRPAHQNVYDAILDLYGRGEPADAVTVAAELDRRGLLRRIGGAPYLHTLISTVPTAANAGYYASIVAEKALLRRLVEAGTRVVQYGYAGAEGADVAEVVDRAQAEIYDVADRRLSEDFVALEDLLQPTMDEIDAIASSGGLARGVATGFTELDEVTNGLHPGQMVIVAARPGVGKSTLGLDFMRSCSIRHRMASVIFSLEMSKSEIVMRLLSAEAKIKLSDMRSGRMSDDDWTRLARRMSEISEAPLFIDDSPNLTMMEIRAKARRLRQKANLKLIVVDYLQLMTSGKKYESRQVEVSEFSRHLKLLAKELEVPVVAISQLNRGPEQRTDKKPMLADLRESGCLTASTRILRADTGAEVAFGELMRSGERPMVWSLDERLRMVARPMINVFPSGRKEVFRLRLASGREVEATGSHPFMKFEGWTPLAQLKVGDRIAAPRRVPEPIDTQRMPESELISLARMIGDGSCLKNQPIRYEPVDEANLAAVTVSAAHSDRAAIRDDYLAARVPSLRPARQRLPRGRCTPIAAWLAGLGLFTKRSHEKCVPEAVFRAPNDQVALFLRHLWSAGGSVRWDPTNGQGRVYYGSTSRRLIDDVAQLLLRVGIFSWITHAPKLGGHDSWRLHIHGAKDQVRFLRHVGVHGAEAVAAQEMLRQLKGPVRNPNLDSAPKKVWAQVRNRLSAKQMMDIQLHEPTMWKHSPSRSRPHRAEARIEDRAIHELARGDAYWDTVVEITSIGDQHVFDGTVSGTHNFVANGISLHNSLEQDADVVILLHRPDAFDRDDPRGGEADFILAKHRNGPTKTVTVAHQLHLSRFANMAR

Protein RecA = target: T2, Protein RecA (Mycobacterium tuberculosis, UniProt P9WHJ3); experiment: Fluorescence Cell-Free Homogeneous Dose Retest to Identify Inhibitors of RecA-Intein Splicing Activity. [Related pubchem assays (depositor defined):AID2097, AID2223, AID489010, AID492950]; assay type: functional
T2 sequence (P9WHJ3 whole entry): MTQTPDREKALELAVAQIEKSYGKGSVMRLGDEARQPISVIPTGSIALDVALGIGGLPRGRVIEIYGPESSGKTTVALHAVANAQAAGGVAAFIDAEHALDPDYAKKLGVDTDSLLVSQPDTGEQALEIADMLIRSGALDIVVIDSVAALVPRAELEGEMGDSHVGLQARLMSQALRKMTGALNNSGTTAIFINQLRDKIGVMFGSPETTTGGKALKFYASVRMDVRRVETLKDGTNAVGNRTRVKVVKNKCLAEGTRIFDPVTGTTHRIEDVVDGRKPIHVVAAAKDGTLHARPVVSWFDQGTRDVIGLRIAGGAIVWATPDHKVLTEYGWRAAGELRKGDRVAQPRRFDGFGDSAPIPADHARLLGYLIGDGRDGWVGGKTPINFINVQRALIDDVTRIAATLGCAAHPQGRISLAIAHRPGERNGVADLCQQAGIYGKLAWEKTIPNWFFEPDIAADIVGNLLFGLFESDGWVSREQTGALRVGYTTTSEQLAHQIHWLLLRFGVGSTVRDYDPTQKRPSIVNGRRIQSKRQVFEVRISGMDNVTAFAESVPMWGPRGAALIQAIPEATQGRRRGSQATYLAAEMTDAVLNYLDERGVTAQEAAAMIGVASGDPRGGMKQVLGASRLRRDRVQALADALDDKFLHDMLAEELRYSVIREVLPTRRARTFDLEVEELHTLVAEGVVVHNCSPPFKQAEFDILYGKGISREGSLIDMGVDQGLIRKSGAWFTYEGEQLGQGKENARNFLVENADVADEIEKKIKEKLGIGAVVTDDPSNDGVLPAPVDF

Streptokinase A = target: T3, Streptokinase A (Streptococcus pyogenes serotype M1, UniProt P10520); experiment: viability-normalized secreted streptokinase activity reduction – plasminogen activation absorbance, OD405, dose response (AID 1914); assay type: functional, Streptococcus pyogenes M1 GAS;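 note: secreted streptokinase activity via plasminogen activation per viability signal from cell pellet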
T3 sequence (P10520 whole entry): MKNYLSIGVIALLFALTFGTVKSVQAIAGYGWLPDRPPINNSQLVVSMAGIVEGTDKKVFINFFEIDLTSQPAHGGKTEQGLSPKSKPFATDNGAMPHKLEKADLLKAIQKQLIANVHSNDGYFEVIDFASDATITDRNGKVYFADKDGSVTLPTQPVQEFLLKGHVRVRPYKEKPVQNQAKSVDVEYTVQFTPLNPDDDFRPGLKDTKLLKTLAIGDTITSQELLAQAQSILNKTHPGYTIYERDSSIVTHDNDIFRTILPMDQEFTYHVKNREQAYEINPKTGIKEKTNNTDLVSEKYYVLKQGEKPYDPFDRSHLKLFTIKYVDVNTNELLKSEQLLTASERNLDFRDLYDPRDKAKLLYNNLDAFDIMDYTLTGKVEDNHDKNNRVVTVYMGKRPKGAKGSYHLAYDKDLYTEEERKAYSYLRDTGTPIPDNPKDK

Streptococcus = experiment: GAS UMAA2166 growth inhibition – luminescence, BacTiterGlo, counter-screen for streptokinase expression inhibitor project, dose response (AID 1915); assay type: functional, organism-based;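 note: potency for reduction of bacterial viability or growth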
[6] = tested on: Streptococcus sp. 'group A'; experiment: Streptococcus pyogenes SK(-)GAS viability under kanamycin – luminescence, BacTiterGlo, confirmation, counter-screen for streptokinase expression inhibitor project, dose response (AID 1900); assay type: functional, organism-based
Cytochrome P450 2C19 = Cytochrome P450 2C19 (Homo sapiens, UniProt P33261); experiment: Cytochrome panel assay with activity outcomes. Panel member name: p450-cyp2c19 Compounds with AC50 equal or less than 10 uM are considered active; assay type: functional; conditions: read-out: AC50
[7] = target: T4, Heat shock factor protein 1 (Mus musculus, UniProt P38532); experiment: decrease of HSF1-responsive luciferase luminescence – cell-based, NIH3T3, dose retest, confirmation (AID 2382); assay type: functional;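 note: NIH3T3 fibroblasts with HSF1-driven luciferase reporter stressed by proteasome inhibitor MG132; luminescence from HSF1-driven luciferase expression after 8 hours of MG132 stress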
T4 sequence (P38532 whole entry): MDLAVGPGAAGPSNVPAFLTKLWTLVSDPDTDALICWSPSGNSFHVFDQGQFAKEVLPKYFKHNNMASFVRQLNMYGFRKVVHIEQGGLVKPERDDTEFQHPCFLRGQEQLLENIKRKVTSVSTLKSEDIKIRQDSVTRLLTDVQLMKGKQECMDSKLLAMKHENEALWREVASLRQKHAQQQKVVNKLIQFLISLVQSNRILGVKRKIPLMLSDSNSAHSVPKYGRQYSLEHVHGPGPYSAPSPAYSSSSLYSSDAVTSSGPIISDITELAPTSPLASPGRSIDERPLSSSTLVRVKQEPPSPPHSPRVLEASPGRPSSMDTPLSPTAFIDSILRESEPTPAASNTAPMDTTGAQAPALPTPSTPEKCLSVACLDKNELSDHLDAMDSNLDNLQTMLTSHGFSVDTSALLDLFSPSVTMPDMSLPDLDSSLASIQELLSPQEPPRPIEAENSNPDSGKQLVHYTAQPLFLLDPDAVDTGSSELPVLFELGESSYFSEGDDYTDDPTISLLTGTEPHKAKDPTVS

[8] = target: T4, Heat shock factor protein 1; experiment: enhancement of HSF1-driven luciferase signal – cell-based, NIH3T3, luminescence, dose retest, confirmation (AID 435004); assay type: functional;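 note: stress induced by proteasome inhibitor MG132 added 30 min after compound; luciferase reporter driven by HSF1 response element in NIH3T3 cells; actives raise luminescence as potentiators of the MG132 stress response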

Chain of Cytochrome P450 2D6 (P10635 whole entry): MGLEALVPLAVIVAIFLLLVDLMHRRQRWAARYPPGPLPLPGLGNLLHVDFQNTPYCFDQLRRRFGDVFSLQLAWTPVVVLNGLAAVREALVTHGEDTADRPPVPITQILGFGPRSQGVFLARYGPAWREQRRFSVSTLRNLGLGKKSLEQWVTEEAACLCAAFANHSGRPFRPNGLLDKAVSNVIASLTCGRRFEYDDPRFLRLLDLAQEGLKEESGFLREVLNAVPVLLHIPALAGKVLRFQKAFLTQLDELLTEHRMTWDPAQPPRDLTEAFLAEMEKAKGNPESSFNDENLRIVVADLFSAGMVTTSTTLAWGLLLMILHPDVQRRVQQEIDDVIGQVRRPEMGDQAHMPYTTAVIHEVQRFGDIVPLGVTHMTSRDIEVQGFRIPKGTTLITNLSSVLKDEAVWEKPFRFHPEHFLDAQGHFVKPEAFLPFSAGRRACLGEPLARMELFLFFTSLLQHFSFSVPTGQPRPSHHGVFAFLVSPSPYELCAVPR
Chain of Cytochrome P450 2C19 (P33261 whole entry): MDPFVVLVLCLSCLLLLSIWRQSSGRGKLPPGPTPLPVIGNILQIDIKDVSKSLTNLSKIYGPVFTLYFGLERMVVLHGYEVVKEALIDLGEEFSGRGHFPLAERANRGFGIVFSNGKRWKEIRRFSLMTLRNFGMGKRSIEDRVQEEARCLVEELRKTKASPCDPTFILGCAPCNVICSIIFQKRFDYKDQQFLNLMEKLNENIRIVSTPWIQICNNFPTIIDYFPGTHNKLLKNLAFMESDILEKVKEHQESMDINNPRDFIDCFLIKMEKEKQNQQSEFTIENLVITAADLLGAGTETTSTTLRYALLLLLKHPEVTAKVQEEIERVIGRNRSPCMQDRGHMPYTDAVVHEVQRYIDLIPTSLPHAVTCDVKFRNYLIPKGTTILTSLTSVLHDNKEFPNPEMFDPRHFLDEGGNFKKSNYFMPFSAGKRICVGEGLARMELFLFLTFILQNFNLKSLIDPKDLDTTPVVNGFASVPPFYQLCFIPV

Compound | EC50 [1] | EC50 (H4) | EC50 [2] | also measured
CCCCNC(=O)Cn1nc([N+](=O)[O-])c([N+](=O)[O-])c1C | 11.1 µM (active) | 35.2 µM (active) | > 120 µM (not active) | –
Cc1ccc(C(C(=O)NC2CCCC2)N(C(=O)Cc2cccs2)c2ccc3c(c2)OCCO3)cc1 (centres undefined) | – | – | – | EC50 [3]: 46.5 µM (active); EC50 [4]: 62.8 µM (active)
C=C1C[C@@H]2[C@H](CC[C@]3(C)C(=O)CC[C@@H]23)[C@@]2(C)C=CC(=O)C=C12 [EXEMESTANE] | 6.44 µM (active) | 26.7 µM (active) | 2.79 µM (active) | –
Cc1ccc(C)n1-c1ccc(C(=O)Nc2ccccc2F)cc1 | 43.1 µM (active) | 14.5 µM (active) | 11.6 µM (active) | –
CCNc1ncc2nc(-c3ccc(F)cc3)c(=O)n(C[C@H]3CCCO3)c2n1 | – | – | – | AC50 (Cytochrome P450 2D6): 0.631 µM (inconclusive)
Cn1c(SCC(=O)N2CCCCC2)nc2c3ccccc3nc-2c1O | – | – | – | EC50 [3]: 22.3 µM (active); EC50 [4]: 35.8 µM (active)
Cc1cc(C)nc(Sc2ccc3nnnn3n2)n1 | 22.5 µM (active) | 11.3 µM (active) | 24.7 µM (active) | –
Cc1ccc(-n2c([S-])c(C(=O)Nc3ccc(OC(F)F)cc3)[n+]3ccc(C(=O)NCCO)cc23)cc1C | > 120 µM (not active) | 21.3 µM (active) | 7.99 µM (active) | –
O=C(O)c1ccc(Cn2cnc3scc(-c4ccccc4)c3c2=O)cc1 | > 120 µM (not active) | > 120 µM (not active) | 9.7 µM (active) | –
CCN(c1ccccc1)S(=O)(=O)c1ccc(NC(=S)NC(=O)c2ccc(Br)o2)cc1 | – | – | – | AC50 (Cytochrome P450 2D6): 3.16 µM (inconclusive)
Cc1ccc(N/C([S-])=C(/C(=O)c2ccc(F)cc2)[n+]2ccccc2)cc1 | – | – | – | AC50 [5]: > 380 µM (inactive); EC50 (Protein RecA): 69.7 µM (active)
Cc1nc2ccccc2c(=O)n1-c1ccc(Br)cn1 | > 120 µM (not active) | > 120 µM (not active) | > 120 µM (not active) | –
CC(C)(C)c1ccc(-c2noc(-c3ccc4c(c3)CCO4)n2)cc1 | 2.25 µM (active) | 0.553 µM (active) | 0.493 µM (active) | EC50 (Streptokinase A): 46 µM (active); EC50 (Streptococcus): > 150 µM (not active); EC50 [6]: 5.26 µM (active)
Cc1csc(SCC(=O)c2c(N)n(C)c(=O)n(C)c2=O)n1 | 29.5 µM (active) | > 120 µM (not active) | 2.14 µM (active) | –
COc1ccc(-c2cc(C(F)F)nc(-n3nc(C)cc3C)n2)cc1 | – | – | – | AC50 (Cytochrome P450 2D6): 22.4 µM (inconclusive)
CSc1nncn1/N=C/c1ccc2c(c1)OCO2 | – | – | – | AC50 (Cytochrome P450 2C19): 25.1 µM (inconclusive); AC50 (Cytochrome P450 2D6): 22.4 µM (inconclusive)
COc1ccc(C(CCN(Cc2ccc(OC)c(OC)c2)C(=O)CCl)c2ccccc2)cc1 (centres undefined) | – | – | – | AC50 [5]: 1.12 µM (active); EC50 [3]: 3.07 µM (active); EC50 [7]: 3.19 µM (active); EC50 [4]: 3 µM (active); EC50 (Protein RecA): 0.269 µM (active)
Cc1ccc(NC2=C(C(=O)Nc3c(C)cc(C)cc3C)C(=N)C(C(=O)Nc3ccc(OC(F)(F)F)cc3)S2)cc1 (centres undefined) | – | – | – | EC50 [3]: 40 µM (active); EC50 [4]: 42.8 µM (active)
Cc1ccc(Cn2ccnc2C(=O)Nc2ccccc2)cc1 | 58 µM (active) | – | 30.4 µM (active) | –
Cc1ccc(-c2csc(NC(=O)CSc3n[nH]c4c5ccccc5nc-4n3)n2)cc1 | – | – | – | EC50 [3]: 24.1 µM (active); EC50 [4]: 21.9 µM (active)
CCCn1c(SCc2nc(O)c3c(C)c(C)sc3n2)nc2ccccc2c1=O | – | – | – | EC50 [3]: 11.8 µM (active); EC50 [8]: 71.9 µM (active); EC50 [4]: 12.5 µM (active)
CCOC(=O)C/C(C)=N/NC(=O)COc1ccccc1C | – | – | – | AC50 [5]: 4.39 µM (active); EC50 (Protein RecA): 2.36 µM (active)
Oc1ccc(Cl)cc1/C=N\c1cnc2ccccc2c1 | – | – | – | AC50 (Cytochrome P450 2D6): 5.01 µM (inconclusive)
Cc1cccc(N=Nc2c[nH]nc2-c2ccco2)c1 | 14.7 µM (active) | 73.5 µM (active) | 29.5 µM (active) | –
COc1ccc(/N=C2/C(=N\c3ccc(OC)cc3)N(c3ccccc3)C(=S)N2C(=O)c2ccc(Cl)cc2)cc1 | 47.3 µM (active) | 18.7 µM (active) | 41.1 µM (active) | –
